Reference: ChEMBL document CHEMBL3885881, “DrugMatrix”

Species on record: Rattus norvegicus
Test: DrugMatrix - Regimen: Daily Repeat
Type: toxicity, organism-based, Sprague-Dawley
Set-up: regimen Daily Repeat, gender Male, age 6-8 weeks
Settings: in vivo, po, 50 mg/kg, route oral GAVAGE, dose level Low, vehicle .5 % CMC; for ABSOLUTE BASOPHIL / ABSOLUTE EOSINOPHIL / ABSOLUTE LYMPHOCYTE / ABSOLUTE MONOCYTE / ABSOLUTE SEGMENTED NEUTROPHIL / BASOPHIL / EOSINOPHIL / ERYTHROCYTE COUNT / HEMATOCRIT / HEMOGLOBIN / LEUKOCYTE COUNT / LYMPHOCYTE / MEAN CORPUSCULAR HEMOGLOBIN / MEAN CORPUSCULAR HEMOGLOBIN CONCENTRATION / MEAN CORPUSCULAR VOLUME / MONOCYTE / NEUTROPHIL / NUCLEATED RED BLOOD CELLS / PLATELET COUNT: tissue Blood; for ALANINE AMINOTRANSFERASE / ALBUMIN / ALKALINE PHOSPHATASE / ASPARTATE AMINOTRANSFERASE / BLOOD UREA NITROGEN / CARBON DIOXIDE / CHLORIDE / CHOLESTEROL / CREATINE PHOSPHOKINASE / CREATININE / GLUCOSE / LACTATE DEHYDROGENASE / LIPASE / PHOSPHORUS / POTASSIUM / SODIUM / TOTAL BILIRUBIN / TOTAL PROTEIN / URIC ACID: tissue Plasma

CC[C@H]1OC(=O)[C@H](C)[C@@H](O[C@H]2C[C@@](C)(OC)[C@@H](O)[C@H](C)O2)[C@H](C)[C@@H](O[C@@H]2O[C@H](C)C[C@H](N(C)C)[C@H]2O)[C@](C)(O)C[C@@H](C)C(=O)[C@H](C)[C@@H](O)[C@]1(C)O [ERYTHROMYCIN]
ABSOLUTE BASOPHIL (72 h, time 3 day): 0 CELLS/uL | ABSOLUTE EOSINOPHIL (72 h, time 3 day): 38.33 CELLS/uL | ABSOLUTE LYMPHOCYTE (72 h, time 3 day): 15941.33 CELLS/uL | ABSOLUTE MONOCYTE (72 h, time 3 day): 389.67 CELLS/uL | ABSOLUTE SEGMENTED NEUTROPHIL (72 h, time 3 day): 1297.33 CELLS/uL | BASOPHIL (72 h, time 3 day): 0% | EOSINOPHIL (72 h, time 3 day): 0.33% | ERYTHROCYTE COUNT (72 h, time 3 day): 5.45 x10E6/uL | HEMATOCRIT (72 h, time 3 day): 34.13% | HEMOGLOBIN (72 h, time 3 day): 13.53 G/DL | LEUKOCYTE COUNT (72 h, time 3 day): 17.67 x10E3/uL | LYMPHOCYTE (72 h, time 3 day): 89.67% | MEAN CORPUSCULAR HEMOGLOBIN (72 h, time 3 day): 24.9 pg | MEAN CORPUSCULAR HEMOGLOBIN CONCENTRATION (72 h, time 3 day): 39.67 G/DL | MEAN CORPUSCULAR VOLUME (72 h, time 3 day): 62.7 fL | MONOCYTE (72 h, time 3 day): 2% | NEUTROPHIL (72 h, time 3 day): 8% | NUCLEATED RED BLOOD CELLS (72 h, time 3 day): 0 /100WBC | PLATELET COUNT (72 h, time 3 day): 1119.67 x10E3/uL | ALANINE AMINOTRANSFERASE (72 h, time 3 day): 49.33 u/L | ALBUMIN (72 h, time 3 day): 4.3 G/DL | ALKALINE PHOSPHATASE (72 h, time 3 day): 366 u/L | ASPARTATE AMINOTRANSFERASE (72 h, time 3 day): 81 u/L | BLOOD UREA NITROGEN (72 h, time 3 day): 14.67 mg/dL | CARBON DIOXIDE (72 h, time 3 day): 28.33 mmol/L | CHLORIDE (72 h, time 3 day): 99.33 MEQ/L | CHOLESTEROL (72 h, time 3 day): 80 mg/dL | CREATINE PHOSPHOKINASE (72 h, time 3 day): 238.67 u/L | CREATININE (72 h, time 3 day): 0.19 mg/dL | GLUCOSE (72 h, time 3 day): 154 mg/dL | LACTATE DEHYDROGENASE (72 h, time 3 day): 152.67 u/L | LIPASE (72 h, time 3 day): 9 u/L | PHOSPHORUS (72 h, time 3 day): 12 mg/dL | POTASSIUM (72 h, time 3 day): 6.83 MEQ/L | SODIUM (72 h, time 3 day): 143.9 MEQ/L | TOTAL BILIRUBIN (72 h, time 3 day): 0.27 mg/dL | TOTAL PROTEIN (72 h, time 3 day): 6 G/DL | URIC ACID (72 h, time 3 day): 1.57 mg/dL | ABSOLUTE BASOPHIL (120 h, time 5 day): 0 CELLS/uL | ABSOLUTE EOSINOPHIL (120 h, time 5 day): 0 CELLS/uL | ABSOLUTE LYMPHOCYTE (120 h, time 5 day): 13393.67 CELLS/uL | ABSOLUTE MONOCYTE (120 h, time 5 day): 52.33 CELLS/uL | ABSOLUTE SEGMENTED NEUTROPHIL (120 h, time 5 day): 520.67 CELLS/uL | BASOPHIL (120 h, time 5 day): 0% | EOSINOPHIL (120 h, time 5 day): 0% | ERYTHROCYTE COUNT (120 h, time 5 day): 4.88 x10E6/uL | HEMATOCRIT (120 h, time 5 day): 31.9% | HEMOGLOBIN (120 h, time 5 day): 12.4 G/DL | LEUKOCYTE COUNT (120 h, time 5 day): 13.97 x10E3/uL | LYMPHOCYTE (120 h, time 5 day): 96% | MEAN CORPUSCULAR HEMOGLOBIN (120 h, time 5 day): 25.47 pg | MEAN CORPUSCULAR HEMOGLOBIN CONCENTRATION (120 h, time 5 day): 38.87 G/DL | MEAN CORPUSCULAR VOLUME (120 h, time 5 day): 65.47 fL | MONOCYTE (120 h, time 5 day): 0.33% | NEUTROPHIL (120 h, time 5 day): 3.67% | NUCLEATED RED BLOOD CELLS (120 h, time 5 day): 1 /100WBC | PLATELET COUNT (120 h, time 5 day): 1227.33 x10E3/uL | ALANINE AMINOTRANSFERASE (120 h, time 5 day): 45 u/L | ALBUMIN (120 h, time 5 day): 4.23 G/DL | ALKALINE PHOSPHATASE (120 h, time 5 day): 454.67 u/L | ASPARTATE AMINOTRANSFERASE (120 h, time 5 day): 86.33 u/L | BLOOD UREA NITROGEN (120 h, time 5 day): 15.33 mg/dL | CARBON DIOXIDE (120 h, time 5 day): 25.67 mmol/L | CHLORIDE (120 h, time 5 day): 104 MEQ/L | CHOLESTEROL (120 h, time 5 day): 39 mg/dL | CREATINE PHOSPHOKINASE (120 h, time 5 day): 315.67 u/L | CREATININE (120 h, time 5 day): 0.19 mg/dL | GLUCOSE (120 h, time 5 day): 170 mg/dL | LACTATE DEHYDROGENASE (120 h, time 5 day): 199 u/L | LIPASE (120 h, time 5 day): 7.67 u/L | PHOSPHORUS (120 h, time 5 day): 10.83 mg/dL | POTASSIUM (120 h, time 5 day): 6.66 MEQ/L | SODIUM (120 h, time 5 day): 143.43 MEQ/L | TOTAL BILIRUBIN (120 h, time 5 day): 0.27 mg/dL | TOTAL PROTEIN (120 h, time 5 day): 6.13 G/DL | URIC ACID (120 h, time 5 day): 1.5 mg/dL
